This note sets out measurements from patent publication US20260234136A1, “ISOXAZOLIDINES AS RIPK1 INHIBITORS AND USE THEREOF” (GENZYME CORPORATION, priority 2023, published 2026).

Values after ≈ are worked out from the molar mass of the structure shown.

One data set has as its system U937 cells. The experiment in a line: Cellular assay in U937 cells to measure the activity of RIPK1-inhibitors on cell death (necroptosis). It is filed as cell-based. As to conditions: Homo sapiens, U-937, 50 μM zVAD.fmk and 100 ng/ml recombinant human TNFα, overnight (18 to 24 hrs), MTS readout.
A further data set in a line: physchem. To be noted: 50 mM phosphate buffer, 25 °C, pH 7.4, aqueous buffer, thermodynamic from solid.

Consider `Cc1ccc([C@@H]2CCON2C(=O)C2CCN(c3cc(-n4ccnc4C)ncn3)CC23CC3)cn1` (mixture of isomers) [Example 33, [5-[6-(2-methylimidazol-1-yl)pyrimidin-4-yl]-5-azaspiro[2.5]octan-8-yl]-[(3S)-3-(6-methylpyridin-3-yl)-1,2-oxazolidin-2-yl]methanone], for which the IC50 – broadly, the concentration that gives 50% inhibition – with U937 cells amounted to 16.4 nM. Further, the solubility (usually the dissolved amount per volume that the medium holds) at 16 h in the data set “physchem” was more than 1090 µM.
The matching figures for `O=C1OCCN1c1ccnc(N2CCC(C(=O)N3OCC[C@H]3c3cnccn3)CC2)n1` [Example 2, (S)-3-(2-(4-(3-(pyrazin-2-yl)isoxazolidine-2-carbonyl)piperidin-1-yl)pyrimidin-4-yl)oxazolidin-2-one]: 50 nM and more than 1180 µM.
The matching figures for `O=C1CCCN1c1ccnc(N2CCC(C(=O)N3OCC[C@H]3c3cncc(F)c3)CC2)n1` [Example 46, 1-[2-[4-[(3S)-3-(5-fluoropyridin-3-yl)-1,2-oxazolidine-2-carbonyl]piperidin-1-yl]pyrimidin-4-yl]pyrrolidin-2-one]: 18 nM and more than 1140 µM.
The matching figures for `Cc1cncc([C@@H]2CCON2C(=O)C2CCN(c3nccc(N4CCCC4=O)n3)CC2)c1` [Example 50, 1-[2-[4-[(3S)-3-(5-methylpyridin-3-yl)-1,2-oxazolidine-2-carbonyl]piperidin-1-yl]pyrimidin-4-yl]pyrrolidin-2-one]: 33 nM and more than 1150 µM.
For `O=C1OCCN1c1ccnc(N2CCC(C(=O)N3OCC[C@H]3c3cncc(F)c3)CC2)n1` [Example 91, 3-[2-[4-[(3S)-3-(5-fluoropyridin-3-yl)-1,2-oxazolidine-2-carbonyl]piperidin-1-yl]pyrimidin-4-yl]-1,3-oxazolidin-2-one], the IC50 in the data set with U937 cells is 7 nM. For the same compound, in “physchem”, the solubility at 16 h is more than 1130 µM.
For `Cc1ccc([C@@H]2CCON2C(=O)[C@@H]2CCN(c3nccc(N4CCCC4=O)n3)CC23CC3)cn1` [Example 44, 1-[2-[(8R)-8-[(3S)-3-(6-methylpyridin-3-yl)-1,2-oxazolidine-2-carbonyl]-5-azaspiro[2.5]octan-5-yl]pyrimidin-4-yl]pyrrolidin-2-one], in that order: 25 nM and 380 µM (≈ 176 µg/mL).
With `Cc1ccc([C@@H]2CCON2C(=O)C2CCN(c3cc(N4CCCC4=O)ncn3)CC2)cn1` [Example 82, 1-[6-[4-[(3S)-3-(6-methylpyridin-3-yl)-1,2-oxazolidine-2-carbonyl]piperidin-1-yl]pyrimidin-4-yl]pyrrolidin-2-one], in the data set with U937 cells, the IC50 turned out to be 10000 nM. In “physchem”, this compound came in with a solubility at 16 h of more than 1150 µM.
